The term Ki denotes a dissociation constant, usually derived from enzyme kinetics or from competition with a known ligand. A high value points to weaker binding.

Assay [1] deals with T1, Histamine H4 receptor (Homo sapiens, UniProt Q9H3N8). Nature of the assay: Cell based cAMP Assays (pA2). The conditions noted are these: read-out: pA2 (converted).
Assay [2] addresses T1, Histamine H4 receptor. In words: Binding assay.

Molecules are shown by their SMILES.

T1 sequence (Q9H3N8 whole entry): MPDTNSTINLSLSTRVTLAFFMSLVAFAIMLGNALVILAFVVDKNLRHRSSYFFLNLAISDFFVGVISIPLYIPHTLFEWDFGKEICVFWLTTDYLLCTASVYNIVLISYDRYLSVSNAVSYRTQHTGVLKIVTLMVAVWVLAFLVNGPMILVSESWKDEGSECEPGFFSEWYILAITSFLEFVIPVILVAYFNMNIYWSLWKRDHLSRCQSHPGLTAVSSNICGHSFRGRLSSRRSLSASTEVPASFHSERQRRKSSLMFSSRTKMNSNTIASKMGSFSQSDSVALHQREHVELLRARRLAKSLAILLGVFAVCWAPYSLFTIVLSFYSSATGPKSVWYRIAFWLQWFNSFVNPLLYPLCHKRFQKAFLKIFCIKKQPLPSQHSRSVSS

Turning to `CN[C@@H]1CCN(c2cc(C(F)(F)F)nc(N)n2)C1`, the Kb on Histamine H4 receptor [1] was > 100 µM (not active). The Ki at Histamine H4 receptor [2] is > 10 µM (not active).

For the origin of these results see ChEMBL document CHEMBL5058644, “Data for DCP probe JNJ-39758979” (2022).
